Measurements reported in paper PMC11762167, “G Protein-Coupled Receptor 17 Inhibits Glucagon-like Peptide-1 Secretion via a Gi/o-Dependent Mechanism in Enteroendocrine Cells” (Biomolecules, 2024).

Tests used:
GLUTag cells = test: GLP-1 secretion from control-transduced or untransduced GLUTag cells; type: cell-based, murine
Description: (§1) GLUTag cells were maintained in Dulbecco’s Modified Eagle Medium (DMEM) supplemented with 10% fetal bovine serum and 1% penicillin–streptomycin in a humidified incubator at 37 °C and 5% CO2. For adenovirus transduction, GLUTag cells were seeded into poly-D-lysine coated 96-well plates or 4-chamber slides. The next day, cells were transduced with adenoviruses (100–1250 viral particles per cell at time of seeding) as indicated. After 24–30 h, adenovirus-containing media was changed to serum-free growth media for overnight serum starvation. The following day, GLUTag cells were used for cAMP or calcium signaling assays, GLP-1 secretion assays, or immunostaining and imaging.
(§2) GLUTag cells were seeded into poly-D-lysine-coated 96-well plates and transduced with adenovirus as specified above and then tested for GLP-1 secretion. Medium was removed and cells were washed two times with GLP-1 secretion buffer (138 mM NaCl, 4.5 mM KCl, 4.2 mM NaHCO3, 2.5 mM CaCl2, 1.2 mM MgCl2, 10 mM HEPES, 1 mM glucose, and 0.1% bovine serum albumin, pH 7.4). Cells were stimulated for 2 h with indicated treatments diluted in GLP-1 secretion buffer for a total volume of 200 µL/well at 37 °C and 5% CO2. Plates were then centrifuged at 300× g for 1 min at 4 °C, and 75 µL of the supernatant was removed and frozen at −80 °C until subsequent GLP-1 quantification. Total GLP-1 was quantified using the Meso Scale Discovery Total GLP-1 V-PLEX kit (Rockville, MD, USA; K1503PD) according to manufacturer’s instructions. For PTX treatment conditions, cells were pretreated with 100 ng/mL PTX overnight. For experiments with YM-254890, cells were pretreated for 15 min at 37 °C and 5% CO2.

hGPR17L-V96M = target: T1, hGPR17L-V96M (Homo sapiens, UniProt Q13304, V96M); test: Endpoint cAMP in GLUTag cells expressing hGPR17L-V96M; type: cell-based
T1 construct: host or cells: GLUTag cells, adenoviral transduction
Description: as §1
Endpoint cAMP measurements were conducted as follows. GLUTag cells were seeded into poly-D-lysine-coated 96-well plates and transduced with adenovirus as specified above and then tested for cAMP signaling. Medium was removed and cells were washed with cAMP stimulation buffer (Hanks’ balanced salt solution (HBSS), 20 mM HEPES, pH 7.4) and then incubated in cAMP stimulation buffer for 30 min at 37 °C and 5% CO2. Cells were then treated for 30 min with agonist and forskolin in the presence of 500 µM IBMX at 37 °C and 5% CO2. Stimulation buffer was then decanted, and cAMP lysis buffer (50 mM HEPES, 10 mM CaCl2, 0.35% Triton X-100, and 500 µM IBMX) was added and shaken at 700 rpm for 1 h. Lysate was transferred to a 384-well plate, and the cAMP levels were quantified using the Cisbio HTRF cAMP (Gi kit; Revvity, Waltham, MA, USA) according to the manufacturer’s protocol.

hGPR17S = target: T2, hGPR17S (Homo sapiens, UniProt Q13304); test: GloSensor cAMP in HEK293 cells transfected with hGPR17S; type: cell-based
T2 construct: host or cells: HEK293 cells (ATCC CRL-1573), transient transfection
Description: (§3) HEK293 cells were maintained and transfected as previously described.
(§4) Live-cell, real-time cAMP measurements were performed using Promega (Madison, WI, USA) GloSensor cAMP luminescent biosensor technology. Glosensor cAMP experiments were conducted as previously described in GLUTag cells and HEK293 cells.

HEK293 cells = test: GloSensor cAMP in HEK293 cells transfected with empty vector (EV); type: cell-based; settings: 100 μM MDL29,951, 3 µM forskolin
Description: as §3, §4

hGPR17L [1] = target: T3, hGPR17L (Homo sapiens, UniProt Q13304); test: Membrane β-arrestin recruitment in HEK293 cells transfected with hGPR17L; type: cell-based
Description: (§5) Membrane β-arrestin recruitment measurements were conducted using a luminescent membrane β-arrestin recruitment reporter assay. HEK293 cells were seeded into white, opaque, poly-D-lysine-coated 96-well plates and transiently transfected using Lipofectamine 3000 (Thermo Fisher Scientific, Waltham, MA, USA) according to the manufacturer’s protocol on the following day. At 48 h post-transfection, cells were washed twice with assay buffer (HBSS, 20 mM HEPES, pH 7.4) and allowed to equilibrate to room temperature for 15 min in assay buffer. Cells were then loaded with coelenterazine h (Nanolight Technology, Prolume Ltd., Lakeside, AZ, USA; 5 µM final concentration) for 5 min in the dark. Luminescence was read using a SpectraMax iD3 (Molecular Devices) with 1 s integration time. Baseline luminescence was read every 2 min for 6 min. Agonist was added and then luminescence was read every 2 min for 30 min.

mGPR17 [2] = target: T4, mGPR17 (Mus musculus, UniProt Q6NS65); test: Membrane β-arrestin recruitment in HEK293 cells transfected with mGPR17; type: cell-based
Description: as §5

mGPR17 [3] = target: T4, mGPR17; test: GLP-1 secretion from GLUTag cells expressing mGPR17; type: cell-based; set-up: host or cells: GLUTag cells, adenoviral transduction; settings: 100 µM MDL29,951, GLUTag mGPR17
Description: as §1
as §2, with “Cells were stimulated for 2 h with indicated treatments diluted in GLP-1 secretion buffer for a total volume of 200 µL/well at 37 °C and 5% CO2.” left out, “For PTX treatment conditions, cells were pretreated with 100 ng/mL PTX overnight. For experiments with YM-254890, cells were pretreated for 15 min at 37 °C and 5% CO2.” left out

hGPR17L [4] = target: T3, hGPR17L; test: GLP-1 secretion from GLUTag cells expressing hGPR17L; type: cell-based; set-up: host or cells: GLUTag cells (murine enteroendocrine line), adenoviral transduction
Description: as §1, §2

hGPR17L [5] = target: T3, hGPR17L; test: Live-cell GloSensor cAMP in GLUTag cells transfected with hGPR17L; type: cell-based; set-up: host or cells: GLUTag cells (murine enteroendocrine line), adenoviral transduction; settings: MDL29,951 alone or together with forskolin
Description: as §4

[6] = read-out: β-arrestin Potency EC50

T4 sequence (Q6NS65 whole entry): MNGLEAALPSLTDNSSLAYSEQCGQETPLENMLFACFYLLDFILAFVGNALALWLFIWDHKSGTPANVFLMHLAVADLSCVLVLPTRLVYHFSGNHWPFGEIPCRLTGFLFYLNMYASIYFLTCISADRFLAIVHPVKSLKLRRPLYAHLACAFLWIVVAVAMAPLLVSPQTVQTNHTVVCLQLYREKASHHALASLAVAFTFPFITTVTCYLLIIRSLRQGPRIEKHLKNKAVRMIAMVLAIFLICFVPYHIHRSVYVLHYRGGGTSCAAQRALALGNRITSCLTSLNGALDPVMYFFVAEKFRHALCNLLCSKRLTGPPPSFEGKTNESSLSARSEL
T3 sequence (Q13304 whole entry): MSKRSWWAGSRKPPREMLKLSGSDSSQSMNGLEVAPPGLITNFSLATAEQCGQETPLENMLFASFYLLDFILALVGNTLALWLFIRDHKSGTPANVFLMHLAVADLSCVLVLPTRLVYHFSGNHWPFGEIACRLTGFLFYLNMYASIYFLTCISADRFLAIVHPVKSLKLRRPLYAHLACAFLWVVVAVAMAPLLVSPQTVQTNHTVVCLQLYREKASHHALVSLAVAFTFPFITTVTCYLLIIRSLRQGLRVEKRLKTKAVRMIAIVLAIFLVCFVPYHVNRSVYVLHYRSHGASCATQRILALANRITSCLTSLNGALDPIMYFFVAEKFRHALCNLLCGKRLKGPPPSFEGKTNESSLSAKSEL
T1 sequence (Q13304 whole entry V96M): as the sequence (Q13304 whole entry) above, with V96M counted along it
T2 sequence (Q13304 29-367): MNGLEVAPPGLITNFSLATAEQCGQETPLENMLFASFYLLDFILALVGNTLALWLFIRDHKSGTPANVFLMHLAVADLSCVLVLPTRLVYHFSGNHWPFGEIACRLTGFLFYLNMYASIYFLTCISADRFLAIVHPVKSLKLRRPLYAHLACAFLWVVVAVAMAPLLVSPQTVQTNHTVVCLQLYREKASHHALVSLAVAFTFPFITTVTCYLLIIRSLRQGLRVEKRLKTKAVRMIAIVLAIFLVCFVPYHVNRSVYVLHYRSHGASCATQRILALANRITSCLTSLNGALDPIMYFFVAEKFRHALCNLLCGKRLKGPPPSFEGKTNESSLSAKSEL

O=C(O)CCc1c(C(=O)O)[nH]c2cc(Cl)cc(Cl)c12 [MDL29,951]
effect on F/I-stimulated GLP-1 secretion (GLUTag cells; 100 nM MDL29,951, control-transduced cells): no effect
effect on GLP-1 secretion under basal conditions (GLUTag cells; 100 nM or 100 µM MDL29,951, control-transduced): no effect
effect on F/I-stimulated GLP-1 secretion (GLUTag cells; 100 µM MDL29,951, control adenovirus): no effect
effect on forskolin-stimulated cAMP (hGPR17L-V96M; 10 µM forskolin, GLUTag hGPR17L-V96M): no significant effect
Mean Diff. (Tukey's multiple comparisons test), cAMP, Row 10 vs. Row 11 (hGPR17L-V96M; hGPR17L-V96M (200), log [MDL29,951] (M) -4.0 vs. Vehicle, Forskolin stimulation, Figure 4B): -6.053
Mean Diff. (Tukey's multiple comparisons test), cAMP, Row 9 vs. Row 11 (hGPR17L-V96M; hGPR17L-V96M (200), log [MDL29,951] (M) -4.6 vs. Vehicle, Forskolin stimulation, Figure 4B): -5.593
Mean Diff. (Tukey's multiple comparisons test), cAMP, Row 8 vs. Row 11 (hGPR17L-V96M; hGPR17L-V96M (200), log [MDL29,951] (M) -5.2 vs. Vehicle, Forskolin stimulation, Figure 4B): -7.097
Mean Diff. (Tukey's multiple comparisons test), cAMP, Row 7 vs. Row 11 (hGPR17L-V96M; hGPR17L-V96M (200), log [MDL29,951] (M) -5.8 vs. Vehicle, Forskolin stimulation, Figure 4B): -12.44
Mean Diff. (Tukey's multiple comparisons test), cAMP, Row 6 vs. Row 11 (hGPR17L-V96M; hGPR17L-V96M (200), log [MDL29,951] (M) -6.4 vs. Vehicle, Forskolin stimulation, Figure 4B): -8.68
Mean Diff. (Tukey's multiple comparisons test), cAMP, Row 5 vs. Row 11 (hGPR17L-V96M; hGPR17L-V96M (200), log [MDL29,951] (M) -7.0 vs. Vehicle, Forskolin stimulation, Figure 4B): -6.907
Mean Diff. (Tukey's multiple comparisons test), cAMP, Row 4 vs. Row 11 (hGPR17L-V96M; hGPR17L-V96M (200), log [MDL29,951] (M) -7.6 vs. Vehicle, Forskolin stimulation, Figure 4B): -4.737
Mean Diff. (Tukey's multiple comparisons test), cAMP, Row 3 vs. Row 11 (hGPR17L-V96M; hGPR17L-V96M (200), log [MDL29,951] (M) -8.2 vs. Vehicle, Forskolin stimulation, Figure 4B): -3.133
Mean Diff. (Tukey's multiple comparisons test), cAMP, Row 2 vs. Row 11 (hGPR17L-V96M; hGPR17L-V96M (200), log [MDL29,951] (M) -8.8 vs. Vehicle, Forskolin stimulation, Figure 4B): 3.127
Mean Diff. (Tukey's multiple comparisons test), cAMP, Row 1 vs. Row 11 (hGPR17L-V96M; hGPR17L-V96M (200), log [MDL29,951] (M) -9.4 vs. Vehicle, Forskolin stimulation, Figure 4B): -1.35
cAMP Maximum Inhibition (% Inhibition) (hGPR17S; 3 µM forskolin): 48±2.2%
cAMP Potency (pEC50) (reversal of inhibition) (hGPR17S; 3 µM forskolin): 5.45±0.07
cAMP Potency (pIC50) (hGPR17S; 3 µM forskolin): 8.83±0.09
EC50 (hGPR17S; 3 µM forskolin, read-out: cAMP Potency EC50 (reversal of inhibition)): 3600 nM
IC50 (hGPR17S; 3 µM forskolin-stimulated GloSensor cAMP, read-out: cAMP Potency IC50): 1.5 nM
cAMP Effect of 100 μM MDL (% Inhibition) (hGPR17S; 100 μM MDL29,951, 3 µM forskolin): 13±3.7%
cAMP Effect of 100 μM MDL (% Inhibition) (HEK293 cells): 7.5±3.2%
β-arrestin Emax (Peak ΔRLU/RLU) (hGPR17L [1]): 0.50±0.03
β-arrestin Potency (pEC50) (hGPR17L [1]): 6.72±0.09
EC50 (hGPR17L [1]; [6]): 190 nM
β-arrestin Emax (Peak ΔRLU/RLU) (mGPR17 [2]): 0.54±0.03
β-arrestin Potency (pEC50) (mGPR17 [2]): 6.69±0.10
EC50 (mGPR17 [2]; [6]): 200 nM
effect on F/I-stimulated GLP-1 secretion (mGPR17 [3]): significantly inhibited
concentration at which maximum inhibition of F/I-stimulated GLP-1 secretion was observed (hGPR17L [4]): 25 µM
effect on F/I-stimulated GLP-1 secretion (hGPR17L [4]; 100 nM MDL29,951, 10 μM forskolin and 10 μM IBMX): no effect
effect on GLP-1 secretion under basal conditions (hGPR17L [4]; 100 nM or 100 µM MDL29,951, hGPR17L-transduced): no effect
IC50 (hGPR17L [4]; 10 µM forskolin and 10 µM IBMX, no antagonist, read-out: IC50, inhibition of F/I-stimulated GLP-1 secretion): 300 nM
inhibition of F/I-stimulated GLP-1 secretion (hGPR17L [4]; 100 μM MDL29,951): 30 ± 7.7%
effect on PMA-stimulated GLP-1 secretion as compared to vehicle-treated cells (raw data) (hGPR17L [4]; 100 µM MDL29,951, 300 nM PMA): significantly inhibited
pIC50, inhibition of F/I-stimulated GLP-1 secretion (hGPR17L [4]; no antagonist): 6.53 ± 0.31
pattern of cAMP modulation, live-cell bioluminescent cAMP biosensor (hGPR17L [5]): biphasic pattern
